Data: patent EP0173664A2, “Biologically active benzimidazole compounds and process for their preparation” (priority 1984, dated 1986)

Test system: isolated rabbit gastric glands
Experiment: Inhibiting effect in vitro on acid secretion in isolated rabbit gastric glands (14C-aminopyrine accumulation, histamine-stimulated)
Assay type: cell-based
Details: Oryctolagus cuniculus, 1 h; negative logarithm of concentration (in M) giving 50% inhibition of aminopyrine accumulation; glands incubated 60 min with 5x10^-5M histamine; read-out: Biological effect in glands pIC50 (converted)
Protocol: Isolated rabbit gastric glands were prepared as described by Berglindh et al., Acta physiol. scand. 1976. 96. 150-159. This method involves vascular perfusion of the rabbit stomach via the gastric arteries, scraping and scissor mincing of the separated gastric mucosa and collagenase (0.1%, Type I, Sigma Chemicals, St. Louis, MO. USA) digestion at 37°C for 60-90 min. The glands are then harvested and filtered through nylon cloth to remove coarse fragments. The glands are thereafter incubated at 37°C in a medium containing NaCl 132.4 mM, KC1 5.4 mM, […], NaH2P04 1.0 mM, MgS04 1.2 mM, CaCl2 1.0 mM, glucose 10 mM, and 1 mg/ml rabbit albumine, pH 7.4.
The acid secretion in the isolated gland preparation was recorded by measuring the uptake of ^14C-labelled aminopyrine into the glands as described by Berglindh et al., Acta physiol. scand. 1976. 97. 401-414. Accumulation of aminopyrine in the glands indicates gastric acid secretion within the glands. The standard medium contained 10^-6M ^14C-aminopyrine (Amersham, Great Britain). After the incubation period, the glands were centrifuged, the supernatant was removed and the glands dried, weighed and dissolved in Soluene -350 (Packard, IU. USA). Samples of the supernatant and glands were separately counted in a scintillation counter. The accumulation of ^14 C-labelled aminopyrine in the glands was calculated as detailed by Berglindh et al., Acta physiol. scand. 1976. 97. 403.
Glands were incubated for 60 min. in the presence of 5x10^-5M histamine and the test compound to be studied. The free base of the test compound was dissolved in methanol. The final concentration of methanol was 1% in the incubation medium, having no influence on the aminopyrine accumulation ratio. For each test compound a complete dose-response curve was generated by testing doses in duplicate in the concentration range 10^-7M to 10-^4M.

IC50	Structure (SMILES)
0.794 µM	COc1ccc2[nH]c([S+]([O-])Cc3cc(Oc4ccc(C)cc4)ccn3)nc2c1 (centres unmarked) [Example 3, 5-methoxy-2-[[[4-(4-methylphenoxy)--2-pyridinyl]methyl]sulfinyl]-1H-benzimidazole]
0.316 µM	CCc1cnc(C[S+]([O-])c2nc3cc(OC)ccc3[nH]2)cc1Oc1ccccc1 (centres unmarked) [Example 6]
1.26 µM	COc1ccc2[nH]c([S+]([O-])Cc3cc(Oc4ccccc4)ccn3)nc2c1 (centres unmarked) [Example 10]
0.316 µM	Cc1cc2nc([S+]([O-])Cc3cc(Oc4ccccc4)ccn3)[nH]c2cc1C (centres unmarked) [Example 12]
0.794 µM	CCc1cnc(C[S+]([O-])c2nc3cc(OC)ccc3[nH]2)cc1OCc1ccccc1 (centres unmarked) [Example 26]

More lines, now with the values behind:

Structure (SMILES)	IC50
CCc1cnc(C[S+]([O-])c2nc3cc(C)c(C)cc3[nH]2)cc1Oc1ccccc1 (centres unmarked) [Example 1, 5,6-dimethyl-2-[[(4-phenoxy-5--ethyl-2-pyridinyl)methyl]sulfinyl]-1H-benzimidazole]	1 µM
COc1ccc2[nH]c([S+]([O-])Cc3cc(-c4ccccc4)ccn3)nc2c1 (centres unmarked) [Example 8]	2.51 µM
COc1ccc2[nH]c([S+]([O-])Cc3nccc(Oc4ccc(C)cc4)c3C)nc2c1 (centres unmarked) [Example 16]	0.631 µM
COc1ccc2[nH]c([S+]([O-])Cc3cc(Oc4ccc(C)cc4)c(C)cn3)nc2c1 (centres unmarked) [Example 18]	0.631 µM
COc1ccc2[nH]c([S+]([O-])Cc3cc(OCc4ccccc4)c(C)cn3)nc2c1 (centres unmarked) [Example 22]	0.0794 µM
Cc1cc2nc([S+]([O-])Cc3cc(-c4ccccc4)ccn3)[nH]c2cc1C (centres unmarked) [Example 24]	7.94 µM
